This note sets out measurements from patent publication US10251937B2, “Retro-inverso analogs of spadin display increased antidepressant effects” (MEDINCELL, priority 2014, dated 2019).

Holding throughout (format): in vivo
In test [1] the test system is C57Bl/6J mice. In words: Novelty Suppressed Feeding (NSF) test. As to conditions: 10 μg/kg i.v. daily for 4 days, test on day 5. The procedure: (§1) Stock solutions were prepared of 2 mg/mL (10^-3M) in distilled water, and before injection spadin solution was diluted in NaCl 0.9% to obtain the different concentrations used for treatments. Corticosterone (Sigma-Aldrich, France) was dissolved in drinking water at the concentration of 3.5 mg/L in the presence of 4.5 g/L of beta-cyclodextrin. […] Fluoxetine (Sigma-Aldrich, France) was dissolved in drinking water at the dose of 80 mg/L and administered during 21 days. For i.p. administration, fluoxetine (TEVA Santé, France) was dissolved in NaCl 0.9% at a concentration of 0.75 mg/mL. The amount injected was 3 mg/kg. Spadin and analogues were administered by i.v. injection. For acute treatment, drugs were administered in a single 100 μL bolus 30 min prior to the beginning of the behavioral tests. For subchronic treatment drugs were injected during 4 consecutive days and behavioral tests were performed on day 5, without additional injection.
The NSF paradigm is a two day test protocol. Day one, mice were deprived from food. Day two mice were placed in a highly brightly lit area, in a plastic box (45×45×20 cm), with a floor covered with wooden bedding. The test was carried out during a 10 min period; during this time the latency to eat was measured. During the test a single pellet of food was placed in the center of the box, on a white platform.

For test [2], the system named is C57Bl/6J mice. In words: Seizure induced by kainate. To be noted: for effect against epilepsy seizure triggered by kainate: kainate 25 mg/Kg. The procedure:
Kainate solutions were prepared in a solution of 140 mM NaCl (saline solution). […] Mice (n=10 per group) were monitored during 2 h for onset and extent of seizures. Six levels of seizure severity were defined as follows: 1—immobility, 2—head/neck movements, 3—clonic unilateral activity, 4—clonic bilateral activity, 5—generalized convulsions, and 6—death. Seizure severity was blindly scored (Moha ou Maati, H. et al. A human TREK-1/HEK cell line: a highly efficient screening tool for drug development in neurological diseases. PLoS One 6, e25602, (2011)). The seizure index was calculated by averaging the points for seizure activity in each group (n=10 per treatment).

Test [3] deals with C57Bl/6J mice. In words: Forced Swimming Test (FST) in naive mice. To be noted: for immobility time, FST, duration of action: 10 naive animals. The procedure: Naïve male C57Bl/6J mice from 7 to 9 weeks old were used in all experiments (Janvier laboratory). Mice were housed 10 animals per cage under a 12-h light/12-h dark cycle (light on at 8:00 am), in a ventilated room at a temperature of 22±1° C. Animals had free access to water and food (A03; SAFE, Augy, France). All experiments were conducted according to policies on the care and use of laboratory animals of the Society for Neuroscience, and also with respect to national laws on animal use. The local Ethics Committee (CIEPAL) approved the experiments.
as §1
The animals were individually placed in a non-escapable cylinder (height 30 cm, diameter 15 cm) filled with 15 cm-water at 22±1° C. The trial was conducted for 6 min. The total period of immobility was manually measured during the last 4 min of the test. A mouse was considered immobile when it remained floating with only slight movements to keep its head above water.

Structures are written as SMILES. Square brackets hold non-standard residues; d marks the D form. Peptide text beside a SMILES is read from it.

As for `CC[C@@H](C)[C@@H](NC(=O)CNC(=O)[C@H](NC(=O)[C@@H](CO)NC(=O)[C@@H](Cc1c[nH]c2ccccc12)NC(=O)CNC(=O)[C@@H](CC(C)C)NC(=O)[C@@H](CCCNC(=N)N)NC(C)=O)C(C)C)C(=O)N1CCC[C@@H]1C(=O)NCC(=O)N[C@H](CO)C(=O)N[C@H](Cc1c[nH]c2ccccc12)C(=O)N[C@H](CCCNC(=N)N)C(=O)N1CCC[C@@H]1C(=O)N[C@H](CC(C)C)C(=O)N1CCC[C@@H]1C(=O)N[C@H](C)C(N)=O` [Analog 3, Ac-rlGwsvGipGswrplpa-NH2] (Ac-[dR][dL]G[dW][dS][dV]G[dI][dP]G[dS][dW][dR][dP][dL][dP][dA]-NH2), in the test with C57Bl/6J mice [1], the “latency to feed, NSF” value is 143.88 ± 23.42 s. Further, the “effect against epilepsy seizure triggered by kainate” value is “no protective effect” in the test with C57Bl/6J mice [2] (1 μg/Kg i.v.) and “important protective effect” in the test on C57Bl/6J mice [2] (10 μg/Kg i.v.). Moreover, the “mice among 10 that reached the two less severe stages of epilepsy seizures (immobility, head or neck movements)” value in the test on C57Bl/6J mice [2] (10 μg/Kg i.v., kainate 25 mg/Kg i.p.) was “two”. Moreover, the “immobility time, FST, acute treatment” value in the test with C57Bl/6J mice [3] (10 μg/kg acute i.v., measured 30 minutes after injection, n=10) was determined as 135.10 ± 8.11 s. The “immobility time, FST, subchronic treatment” value in the test with C57Bl/6J mice [3] (10 μg/kg i.v. once a day for 4 days, test on day 5) turned out to be 114.9 ± 9.82 s. Besides, the “immobility time, FST, duration of action” value in the test on C57Bl/6J mice [3] (1 hour after i.v. injection) stood at 123.4 ± 7.0 s; in the test with C57Bl/6J mice [3] (16 hours after i.v. injection) it was 129.6 ± 12.7 s. In addition, the “duration of activity in vivo compared to Analog 8” value in the test on C57Bl/6J mice [3] (FST (FIG. 4B)) is on record as “active for longer duration in vivo”.
